For test [1], the target named is T1, EP1 receptor (Homo sapiens, UniProt P34995).
T1 construct: These full length receptors are used to prepare 293S cells expressing the EP1, EP2, EP3 and EP4 receptors; expressed in transfected cells; membranes
T1 sequence (P34995 1-402): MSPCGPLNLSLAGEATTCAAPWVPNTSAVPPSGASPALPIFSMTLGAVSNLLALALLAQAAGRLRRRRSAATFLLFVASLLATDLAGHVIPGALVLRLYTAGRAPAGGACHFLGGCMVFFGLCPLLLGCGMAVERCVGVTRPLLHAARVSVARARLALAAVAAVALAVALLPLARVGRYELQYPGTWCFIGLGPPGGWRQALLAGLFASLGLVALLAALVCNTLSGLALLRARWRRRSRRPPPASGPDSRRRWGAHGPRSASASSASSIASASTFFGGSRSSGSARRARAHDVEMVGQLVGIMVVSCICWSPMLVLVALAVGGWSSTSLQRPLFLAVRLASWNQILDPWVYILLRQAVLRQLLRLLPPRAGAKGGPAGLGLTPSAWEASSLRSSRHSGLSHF
The test can be described thus: Assay for binding to prostaglandin E2 receptors, 3H-PGE2 displacement (EP1). To be noted: displacement of 3H-prostaglandin E2, membranes of transfected 293S cells; read-out: IC50 at EP1 receptor subtype. On the procedure:
(§1) All operations are performed at 4° C. […] The cells are lysed by sonification with a Branson Sonifier (Model #250, Branson Ultrasonics Corporation, Danbury, Conn.) in 2 fifteen second bursts. Unlysed cells and debris are removed by centrifugation at 100×g for 10 min. Membranes are then harvested by centrifugation at 45,000×g for 30 minutes. Pelleted membranes are resuspended to 3-10 mg of protein per ml of Buffer A, the protein concentration being determined by the method of Bradford [M. Bradford, Anal. Biochem., 72, 248 (1976)]. Resuspended membranes are then stored frozen at −80° C. until use.
(§2) Frozen membranes prepared as above are thawed and diluted to 1 mg protein per ml in Buffer A above. One volume of membrane preparation is combined with 0.05 volume test compound or buffer and one volume of 3 nM ^3H-prostaglandin E2 (#TRK 431, Amersham, Arlington Heights, Ill.) in Buffer A. The mixture (205 μL total volume) is incubated for 1 hour at 25° C. The membranes are then recovered by filtration through type GF/C glass fiber filters (#1205-401, Wallac, Gaithersburg, Md.) using a Tomtec harvester (Model Mach 11/96, Tomtec, Orange, Conn.). […] To determine the amount of ^3H-prostaglandin bound to the membranes, the dried filters are placed into plastic bags with scintillation fluid and counted in a LKB 1205 Betaplate reader (Wallac, Gaithersburg, Md.). […]
On the technique in general: Displacement assays read how much labelled ligand stays bound in the presence of the test substance.

The subject of test [2] is reperfusion renal injury model. The test can be described thus: Reperfusion renal injury model (clamping both renal arteries for 60 minutes). Format: in vivo, rat. To be noted: 24 hours following reperfusion. The method, then:
Two different models of acute renal failure were used: the nephrotoxic acute renal failure model, as described above, and the reperfusion renal injury model, which involved clamping both renal arteries for 60 minutes. (K. J. Kelly, W. W. Williams, R. B. Colvin and J. V. Bonventure, “Intercellular Adhesion Molecule 1 Protects the Kidney Against Ischemic Injury,” Proc. Natl. Acad. Sci. USA, 91:812-816 (1994); and S. Vukicevic, V. Basic, D. Rogic, N. Basic, M. S. Shih, A. Shepard, D. Jin, D. Bosukonda, W. Jones, H. Dorai, S. Ryan, D. Griffiths, J. Maliakal, M. Jelic, M. Pastorcic, A. Stavljenic and K. Sampath, “Osteogenic Protein-1 (Bone Morphogenetic Protein-7) Reduces Severity of Injury After Ischemic Acute Renal Failure in Rat,” J. Clin. Invest.,102:202-214 (1998).)
The animals were dosed with the EP4 agonist just prior to the initiation of the nephrotoxic insult.

Test [3] addresses T2, EP4 receptor (Homo sapiens, UniProt P35408).
T2 construct: These full length receptors are used to prepare 293S cells expressing the EP1, EP2, EP3 and EP4 receptors; expressed in transfected cells; membranes
Put plainly: Assay for binding to prostaglandin E2 receptors, 3H-PGE2 displacement (EP4). To be noted: displacement of 3H-prostaglandin E2, membranes of transfected 293S cells. On the procedure:
as §1, §2

Test [4] has as its target T3, EP3 receptor (Homo sapiens, UniProt P43115).
T3 construct: These full length receptors are used to prepare 293S cells expressing the EP1, EP2, EP3 and EP4 receptors; expressed in transfected cells; membranes
T3 sequence (P43115 1-390): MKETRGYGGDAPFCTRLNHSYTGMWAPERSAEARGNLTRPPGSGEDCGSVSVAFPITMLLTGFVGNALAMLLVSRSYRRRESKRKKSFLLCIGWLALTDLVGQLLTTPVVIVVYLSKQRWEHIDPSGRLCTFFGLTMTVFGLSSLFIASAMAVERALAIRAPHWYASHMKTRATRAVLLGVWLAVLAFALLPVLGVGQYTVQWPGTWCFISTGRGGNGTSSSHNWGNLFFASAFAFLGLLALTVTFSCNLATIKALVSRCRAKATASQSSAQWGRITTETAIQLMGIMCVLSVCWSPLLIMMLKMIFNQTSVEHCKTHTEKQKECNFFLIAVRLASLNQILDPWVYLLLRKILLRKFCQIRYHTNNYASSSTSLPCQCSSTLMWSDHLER
Put plainly: Assay for binding to prostaglandin E2 receptors, 3H-PGE2 displacement (EP3). To be noted: displacement of 3H-prostaglandin E2, membranes of transfected 293S cells; read-out: IC50 at EP3 receptor subtype. On the procedure: as §1, §2

In test [5] the target is T4, EP2 receptor (Homo sapiens, UniProt P43116).
T4 construct: These full length receptors are used to prepare 293S cells expressing the EP1, EP2, EP3 and EP4 receptors; expressed in transfected cells; membranes
The test can be described thus: Assay for binding to prostaglandin E2 receptors, 3H-PGE2 displacement (EP2). To be noted: displacement of 3H-prostaglandin E2, membranes of transfected 293S cells; read-out: IC50 at EP2 receptor subtype. On the procedure:
as §1, §2

The subject of test [6] is nephrotoxic acute renal failure model. Put plainly: Nephrotoxic acute renal failure model. Format: in vivo, rat. The method, then:
The remnant rat kidney (5/6 nephrectomy) model employed was essentially as previously described in the literature (Vukicevic et al., Journal of Bone and Mineral Research, 2:533-545 (1987)). In brief, male rats (4 months old, weighing approximately 400 g) were anesthesized by intraperitoneal administration of ketamin (20 mg/kg) and then subjected to unilateral nephrectomy (left kidney). All animals were subjected to intraperitoneal administration of 1-3 ml of prewarmed saline to compensate for any fluid loss during the surgery. After one week, ⅔ of the remaining kidney was surgically removed. The rats were allowed to recover for one or two weeks prior to the initiation of the therapy for the prevention of the disease.
Blood samples (0.5 ml) were obtained from the orbital plexus and serum creatinine, BUN (blood urea nitrogen), calcium, phosphate and other blood chemistries were monitored throughout the study. Urine was collected on metabolic cages for 24 h. Creatinine was measured by a Jaffe method. A. W. Whelton, A. J. Watson and R. C. Rock: “Nitrogen Metabolites and Renal Function,” in: Clinical Chemistry (Eds: C. A. Burtis and E. R. Ashwood) W. B. Saunders, Philadelphia, Pa., 1513-1575 (1994). BUN was measured by a glutamate dehydrogenase ultraviolet method, phosphorus by a molybdate method, and calcium by an o-cresolphtaleine method. R. A. Lafayette, R. D. Perrone and A. S. Levey: “Laboratory Evaluation of Renal Function,” in: Diseases of the Kidney (Eds: R. W. Schrier and C. W. Gottschalk), Little, Brown and Company, Inc., Vol. 6, 307-354 (1997). The GFR was calculated using […] (24 hr collection) and adjusted to body weights. The cumulative survival rate was also observed and recorded for both the control and the experimental groups. The kidney was subjected to histomorphometric analysis and scored for tissue pathology.
Two different models of acute renal failure were used: the nephrotoxic acute renal failure model, as described above, and the reperfusion renal injury model, which involved clamping both renal arteries for 60 minutes. […]

T4 sequence (P43116 whole entry): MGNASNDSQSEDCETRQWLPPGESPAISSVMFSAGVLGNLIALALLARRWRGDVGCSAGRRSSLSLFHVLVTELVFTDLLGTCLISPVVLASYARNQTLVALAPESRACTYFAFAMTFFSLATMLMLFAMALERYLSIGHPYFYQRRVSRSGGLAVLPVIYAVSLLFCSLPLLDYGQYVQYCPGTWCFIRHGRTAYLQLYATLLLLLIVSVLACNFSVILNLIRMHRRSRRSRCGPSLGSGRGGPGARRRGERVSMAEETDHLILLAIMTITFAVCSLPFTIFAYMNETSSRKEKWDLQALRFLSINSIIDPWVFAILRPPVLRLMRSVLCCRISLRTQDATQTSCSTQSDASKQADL
T2 sequence (P35408 whole entry): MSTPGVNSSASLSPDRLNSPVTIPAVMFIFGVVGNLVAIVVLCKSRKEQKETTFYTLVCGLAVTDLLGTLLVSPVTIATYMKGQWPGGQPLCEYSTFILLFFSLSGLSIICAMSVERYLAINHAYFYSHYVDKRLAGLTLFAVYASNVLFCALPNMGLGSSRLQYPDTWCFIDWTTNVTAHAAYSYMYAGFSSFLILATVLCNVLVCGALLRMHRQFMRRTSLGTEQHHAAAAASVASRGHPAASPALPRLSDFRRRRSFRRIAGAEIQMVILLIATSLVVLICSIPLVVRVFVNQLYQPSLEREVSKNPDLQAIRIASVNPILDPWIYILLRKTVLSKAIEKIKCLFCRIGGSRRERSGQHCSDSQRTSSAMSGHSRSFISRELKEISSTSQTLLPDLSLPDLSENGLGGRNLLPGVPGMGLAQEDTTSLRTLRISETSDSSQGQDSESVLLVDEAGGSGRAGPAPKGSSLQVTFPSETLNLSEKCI

What is called IC50 is the concentration at which inhibition is half-maximal. Turning to `O=C(O)CCCCCCN1C(=O)CCC1CCC(O)Cc1ccccc1` (centres unmarked) [7-(2-(3-hydroxy-4-phenyl-butyl)-5-oxo-pyrrolidin-1-yl)-heptanoic acid], the IC50 in test [1] was > 3.2 µM; in test [3], 0.016 µM; in test [4] it was > 3.2 µM; in test [5] it was > 3.2 µM. The “efficacy in reperfusion renal injury” value in test [2] was “effective 24 hours following reperfusion”. The “animals survived after seven days” value in test [6] (dose of 10 mg/kg, control group four out of ten) was “nine out of ten”. Also, the “protection against renal injury, based on serum parameters” value in test [6] (dosed just prior to the nephrotoxic insult) is “effective in protecting against renal injury”. Besides, in test [6] (doses 1 mg/kg and 10 mg/kg, 10 mg/kg better than 1 mg/kg), the “survival time of animals” value was “increased the survival time of animals in a dose dependent manner”.

These data come from patent US6610719B2 (Pfizer Inc., priority 2000, dated 2003).
